Earlier results, collected in patent US9302023B2, “Aldehyde gas deodorant and method for producing same” (TOAGOSEI CO., LTD., priority 2012, dated 2016).

Conditions: stated as known; unsupported substance

| SMILES | Mutagenicity of the substance itself |
| --- | --- |
| NNC(=O)CCCCC(=O)NN [adipic dihydrazide] | negative |
| NNC(=O)NN [carbohydrazide] | negative |
| NN [hydrated hydrazine] | strongly positive |
| NN [hydrazine] | positive |
| NNC(=O)C(=O)NN [oxalic dihydrazide] | negative |
| NNC(=O)CCC(=O)NN [succinic dihydrazide] | weakly positive |

Same assay, conditions: stated as known; unsupported substance; listed as Hydrazine

| SMILES | Mutagenicity of the substance itself |
| --- | --- |
| NN [hydrazine] | highly positive |
